Experimental data taken from patent US20060079453A1, “Hla binding peptides and their uses” (priority 2002, published 2006).
Where two headings read alike, the source gives them in different places. No end group written: not given here.

Assays:
Assay in all cases: biochemical
Type in all cases: binding
[1] = biological target: HLA-DR DRB1*0701 (DR7) (Homo sapiens, UniProt P01903+P01911, A100R/A102G/A103Q/D57E/D86V/E43K/F76Y/K127E/L162R/M171V/P40G/Q125H/Q99D/R33Q/R42Y/R54Q/S133A/S66F/T210M/V115G/Y107V/Y59L/Y89S)
[2] = biological target: HLA-DR DRB5*0101 (DR51) (Homo sapiens, UniProt P01903+Q30154); details: DRB5 *0101
[3] = biological target: HLA-DR DRB1*0101 (DR1) (Homo sapiens, UniProt P01903+P01911, A100R/D57E/F55L/F60I/F76Y/I96L/L162R/M171V/P40L/Q125E/R42F/V115G/Y59C)
[4] = biological target: HLA-DR DRB1*0401 (DR4) (Homo sapiens, UniProt P01903+P01911, A100K/A169T/F76Y/I96L/K127E/L162R/M171V/N62H/P40V/Q125Y/R42H/S133A/S149N/S66Y/V115G/V209L/W38E)
[5] = biological target: HLA-DR DRB1*0802 (DR8) (Homo sapiens, UniProt P01903+P01911, A100R/A103L/A169T/F76Y/H45Y/I96F/K41T/L162R/M171V/P40S/Q125H/Q178H/Q39Y/Q99D/R218S/R42G/S66Y/V115G/W38E)
[6] = biological target: HLA-DR DRB1*1302 (DR13) (Homo sapiens, UniProt P01903+P01911, A100E/A169T/K41T/L162R/M171V/P40S/Q125H/Q178H/Q39Y/Q99D/R42S/S66N/T262R/V115G/W38E/Y61H)
HLA-DR DRB1*1302 (DR13), sequence (P01903 26-254 limits assumed, other chains not shown): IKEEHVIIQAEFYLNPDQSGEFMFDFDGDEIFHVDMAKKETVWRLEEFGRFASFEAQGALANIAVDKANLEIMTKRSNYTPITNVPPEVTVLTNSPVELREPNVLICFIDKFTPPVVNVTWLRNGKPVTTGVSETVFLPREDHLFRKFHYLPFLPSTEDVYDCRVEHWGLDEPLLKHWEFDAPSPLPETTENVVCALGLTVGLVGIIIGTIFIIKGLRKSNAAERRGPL

[7] = biological target: HLA-DR DRB1*1501 (DR15) (Homo sapiens, UniProt P01903+P01911)
[8] = biological target: HLA-DR DRB1*0301 (DR3) (Homo sapiens, UniProt P01903+P01911, A100K/A102G/A103R/A169T/F55Y/I96L/K41T/L162R/M171V/P40S/Q125H/Q178H/Q39Y/R42S/S66N/T106N/T262R/W38E/Y61H)
HLA-DR DRB1*0301 (DR3), sequence (P01903 26-254 limits assumed, other chains not shown): as above

[9] = biological target: HLA-DR DRB4*0101 (DR53) (Homo sapiens, UniProt P01903+P13762, G164S)
[10] = biological target: HLA-DR DRB1*0901 (DR9) (Homo sapiens, UniProt P01903+P01911, A100R/A103E/D57H/D86V/F55Y/F60I/F76Y/I96F/K127E/L162R/M171V/P40D/Q125H/Q99R/R33Q/R42F/S133A/S66N/T210M/V115G/W38K/Y107V/Y59G/Y89S)

| Molecule | IC50 ([1]; DRB1 *0701) | IC50 [2] | IC50 ([3]; DRB1 *0101) | IC50 ([4]; DRB1 *0401) | IC50 [5] | IC50 ([6]; DRBI *1302) | IC50 ([7]; DRBI *1501) | IC50 ([9]; DRB4 *0101) | IC50 ([1]; read-out: DRB1 *0701) | IC50 ([10]; read-out: DRB1 *0901) | IC50 ([5]; read-out: DRB1 *0802) | other results |
| --- | --- | --- | --- | --- | --- | --- | --- | --- | --- | --- | --- | --- |
| KCEFQDAYVILLSEKK | 336 nM | 20 nM | 14 nM | 73 nM | 489 nM | > 10300 nM | > 47600 nM | > 19600 nM | – | – | – | IC50 [8]: 5790 nM |
| CC[C@H](C)[C@H](NC(=O)[C@H](CCCCN)NC(=O)[C@H](C)NC(=O)[C@@H]1CCCN1C(=O)[C@H](CCC(=O)O)NC(=O)[C@H](CO)NC(=O)[C@H](CC(C)C)NC(=O)[C@H](CCCNC(=N)N)NC(=O)[C@H](CC(C)C)NC(=O)[C@H](CC(C)C)NC(=O)[C@H](CCSC)NC(=O)[C@H](CC(C)C)NC(=O)[C@H](CC(=O)O)NC(=O)[C@@H](N)Cc1c[nH]cn1)C(=O)N[C@H](C(=O)O)[C@@H](C)O | 109 nM | – | 16 nM | 3060 nM | 544 nM | 0.83 nM | – | 12 nM | – | – | – | IC50 ([10]; DRB1 *0901): 43 nM |
| YEALIKLLPFSKRIR | 3580 nM | 11 nM | 55 nM | 1840 nM | 180 nM | 230 nM | 36 nM | 15 nM | – | – | – | – |
| VLFLQMMNVNLQKQL | 8440 nM | > 7210 nM | 6.3 nM | 30 nM | 56800 nM | 8.6 nM | 8200 nM | 12 nM | – | – | – | – |
| DSSIEGNYTLRVDCT | – | – | – | – | – | – | – | – | 14500 nM | > 187000 nM | > 163000 nM | – |
| CC[C@H](C)[C@H](NC(=O)[C@H](Cc1ccc(O)cc1)NC(=O)[C@@H]1CCCN1)C(=O)N[C@@H](CC(C)C)C(=O)N[C@@H](CC(C)C)C(=O)N[C@H](C(=O)N[C@@H](CO)C(=O)N[C@@H](CO)C(=O)N[C@@H](CCCCN)C(=O)N[C@H](C(=O)N[C@@H](CO)C(=O)N[C@H](C(=O)N[C@H](C(=O)N[C@@H](CCCCN)C(=O)N[C@@H](CC(=O)O)C(=O)O)C(C)C)[C@@H](C)O)C(C)C)C(C)C | – | 32 nM | – | – | 12 nM | – | – | – | – | – | – | IC50 [1]: 38 nM; IC50 [3]: 1.1 nM; IC50 [4]: 64 nM; IC50 [6]: 7.2 nM; IC50 [7]: 22 nM; IC50 [9]: 107 nM |
| ILFLVKMNALRRLPV | 56 nM | 14 nM | 0.8 nM | 5.6 nM | 19 nM | – | 1.4 nM | 7.6 nM | – | – | – | – |
| MTNLAALFPPEGVS | – | – | – | – | – | – | – | – | > 125000 nM | 22800 nM | 39200 nM | IC50 ([3]; read-out: DRB1 *0101): 24 nM; IC50 ([4]; read-out: DRB1 *0401): > 40000 nM |
| MSAMTNLAALFPPEG | – | – | – | – | – | – | – | – | 36100 nM | > 187000 nM | 73900 nM | IC50 ([4]; read-out: DRB1 *0401): 700 nM |
